The values below come from patent publication US8809321B2, “Diaryl ether linked pyrrolo [2,1-c][1,4] benzodiazepine hybrids and process for the preparation thereof” (Council of Scientific and Industrial Research, priority 2011, dated 2014).

SMILES strings stand for the structures. Like-named read-outs stand apart in the source and are kept apart here.

For test [1], the system named is duplex-form calf thymus DNA (CT-DNA). Description: Thermal denaturation studies with calf thymus DNA (DNA binding affinity). To be noted: [PBD]:[DNA] molar ratio 1:5, CT-DNA 100 μM, ligand 20 μM, sodium phosphate buffer pH 7.00; for (ΔTm ° C.) after incubation at 37° C. for 0 h: 0 h at 37° C.; for (ΔTm ° C.) after incubation at 37° C. for 18 h: 18 h at 37° C. As for the experimental part:
DNA Binding Affinity of Diaryl Ether Linked PBD Hybrids: Compounds have been subjected to thermal denaturation studies with duplex-form calf thymus DNA (CT-DNA) using a modification of a reported procedure (Newman, M. S. Carcinog-compr. Surv. 1976, 1, 203; ([…].; Loy, M.; Hoffman, Carcinog-compr. […] The DNA-PBD solutions have been incubated at 37° C. for 0 and 18 h prior to analysis. […] DNA helix→coil transition temperatures (Tm) have been obtained from the maxima in the d(A260)/dT derivative plots. […] The DNA binding activity for these novel C8-linked diaryl ether PBD hybrids has been examined by thermal denaturation studies using calf thymus (CT) DNA. […] The data for the compounds are included in Table 1 for comparison.

Test [2] deals with A549 lung cancer cell line. Description: MTT assay, 48 h continuous drug exposure, A549. The format is cell-based, human. As for the experimental part: (§1) Some of the C8-linked diaryl ether-PBD hybrids have been tested against eleven human tumour cell lines derived from seven cancer types (lung cancer, colon cancer, cervix, ovarian cancer, oral cancer, prostate cancer and breast cancer) as per Tata protocol as shown in Table 2. For each compound, dose response curves for each cell line were measured at a minimum of five concentrations at 10 fold dilutions. A protocol of 48 h continuous drug exposure was used and a MTT assay was used to estimate cell viability or growth. The percent of cell growth (GI50) compared with the control was calculated. Some of the compounds have been evaluated for their in vitro cytotoxicity in eleven cell lines from seven human cancer types. The results are expressed as GI50 determined relative to that of untreated control cells (Table-2).

The subject of test [3] is MCF7 breast cancer cell line. The test can be described thus: MTT assay, 48 h continuous drug exposure, MCF7. The format is cell-based, human. As for the experimental part: as §1
On the technique in general: Tetrazolium assays rely on reduction of a dye to a coloured formazan, in cell work by metabolically active cells.

The subject of test [4] is Colo205 colon cancer cell line. Description: MTT assay, 48 h continuous drug exposure, Colo205. The format is cell-based, human. As for the experimental part: as §1
Test [5] deals with ZR-751 breast cancer cell line. The test can be described thus: MTT assay, 48 h continuous drug exposure, ZR-751. Format: cell-based, human. To be noted: breast cancer cell line, 48 h exposure, MTT, read-out: GI50 ZR-751. As for the experimental part:
(§2) For each compound, dose response curves for each cell line were measured at a minimum of five concentrations at 10 fold dilutions. A protocol of 48 h continuous drug exposure was used and a MTT assay was used to estimate cell viability or growth. The percent of cell growth (GI50) compared with the control was calculated.

Test [6] deals with A2780 ovarian cancer cell line. The test can be described thus: MTT assay, 48 h continuous drug exposure, A2780. Format: cell-based, human. To be noted: ovarian cancer cell line, 48 h exposure, MTT, read-out: GI50 A2780. As for the experimental part:
as §2

Test [7] has as its system Hop62 lung cancer cell line. The test can be described thus: MTT assay, 48 h continuous drug exposure, Hop62. Format: cell-based, human. To be noted: lung cancer cell line, 48 h exposure, MTT, read-out: GI50 Hop62. As for the experimental part: as §2
In test [8] the test system is SiHa Cervix cancer cell line. The test can be described thus: MTT assay, 48 h continuous drug exposure, SiHa. To be noted: Cervix cancer cell line, 48 h exposure, MTT, read-out: GI50 SiHa. Format: cell-based, human. As for the experimental part: as §2
Test [9] concerns Gurav oral cancer cell line. The test can be described thus: MTT assay, 48 h continuous drug exposure, Gurav. To be noted: oral cancer cell line, 48 h exposure, MTT, read-out: GI50 Gurav. The format is cell-based, human. As for the experimental part: as §2
Test [10] deals with DWD oral cancer cell line. Description: MTT assay, 48 h continuous drug exposure, DWD. To be noted: oral cancer cell line, 48 h exposure, MTT, read-out: GI50 DWD. Format: cell-based, human. As for the experimental part:
as §2

For test [11], the system named is PC3 prostrate cancer cell line. The test can be described thus: MTT assay, 48 h continuous drug exposure, PC3. The format is cell-based, human. To be noted: prostrate cancer cell line, 48 h exposure, MTT, read-out: GI50 PC3. As for the experimental part:
as §2

[12] abbreviates: Homo sapiens, A549, 48 h exposure.
Setting [13] is: Homo sapiens, MCF7, 48 h exposure.
The mark [14] stands for this setting: Homo sapiens, COLO 205, 48 h exposure.

With `COc1ccc(Oc2ccc(O)cc2N)cc1OC` [5b, 3-amino-4-(3,4-dimethoxyphenoxy)phenol, reference compound], the “(ΔTm ° C.) after incubation at 37° C. for 0 h” value in [1] is 0.1 °C. Also, the “(ΔTm ° C.) after incubation at 37° C. for 18 h” value in [1] was 0.2 °C. The GI50 in [2] (setting [12]), in test [3] (setting [13]) and in test [4] (setting [14]) was above 50000 nM throughout.

Turning to `COc1ccc(Oc2ccc(C(=O)N3CCNCC3)cc2N)cc1OC` [7b, [3-amino-4-(3,4-dimethoxyphenoxy)phenyl](piperazino)methanone, reference compound], in [1], the “(ΔTm ° C.) after incubation at 37° C. for 0 h” value worked out at 0.2 °C. For the same compound, the “(ΔTm ° C.) after incubation at 37° C. for 18 h” value in test [1] stood at 0.5 °C. Further, the GI50 in [2] (setting [12]), in test [3] (setting [13]) and in test [4] (setting [14]) was above 50000 nM throughout.

Consider `COc1ccc(Oc2cc(OCCCCCOc3cc4c(cc3OC)C(=O)N3CCC[C@H]3C=N4)ccc2N)cc1` [10g, 7-Methoxy-(8-5-[4-amino-3-(4-methoxyphenoxy)phenoxy]pentyloxy)-(11aS)-1,2,3,11a-tetrahydro-5H-pyrrolo[2,1-c][1,4]benzodiazepin-5-one], for which, in [1], the “(ΔTm ° C.) after incubation at 37° C. for 0 h” value stood at 2.9 °C. Moreover, the “(ΔTm ° C.) after incubation at 37° C. for 18 h” value in test [1] was determined as 3.6 °C. Besides, the GI50 – broadly, the concentration giving 50% growth inhibition – in test [5] amounted to 3100 nM; in [2] (48 h exposure) it was 2840 nM; in [6], 2300 nM; in test [7], 2100 nM; in test [8], 1560 nM; in test [9], 2430 nM. The GI50 was 2300 nM in [3] (48 h exposure), 1500 nM in test [4] (48 h exposure), 2400 nM in [10] and 2840 nM in [11].

As to `COc1ccc(Oc2cc(OCCCCCOc3cc4c(cc3OC)C(=O)N3CCC[C@H]3C=N4)ccc2N)cc1OC` [11g, 7-Methoxy-(8-5-[4-amino-3-(3,4-dimethoxyphenoxy)phenoxy]pentyloxy)-(11aS)-1,2,3,11a-tetrahydro-5H-pyrrolo[2,1-c][1,4]benzodiazepin-5-one], in test [1], the “(ΔTm ° C.) after incubation at 37° C. for 0 h” value is 4.1 °C. Besides, the “(ΔTm ° C.) after incubation at 37° C. for 18 h” value in test [1] came to 5.5 °C. The GI50 in test [5] is 2500 nM; in [2] (48 h exposure) it was 2010 nM; in test [6], 170 nM; in test [7], 2430 nM; in test [8], 1990 nM; in [9], 160 nM. In addition, the GI50 in test [3] (48 h exposure) was found to be 160 nM; in test [4] (48 h exposure) it was 170 nM; in test [10], 180 nM; in [11], 2250 nM.

Regarding `COc1cc2c(cc1OCCCCCOc1ccc(N)c(Oc3cc(OC)c(OC)c(OC)c3)c1)N=C[C@@H]1CCCN1C2=O` [12g, 7-Methoxy-(8-5-[4-amino-3-(3,4,5-trimethoxyphenoxy)phenoxy]pentyloxy)-(11aS)-1,2,3,11a-tetrahydro-5H-pyrrolo[2,1-c][1,4]benzodiazepin-5-one], the “(ΔTm ° C.) after incubation at 37° C. for 0 h” value in [1] is 4.2 °C. The “(ΔTm ° C.) after incubation at 37° C. for 18 h” value in test [1] was determined as 5.1 °C. Also, the GI50 turned out to be 2100 nM in test [5]; 190 nM in [2] (48 h exposure); 170 nM in [6]; 2860 nM in [7]; 2860 nM in test [8]; 170 nM in test [9]. Besides, the GI50 is 160 nM in [3] (48 h exposure), 160 nM in [4] (48 h exposure), 170 nM in test [10] and 2190 nM in test [11].

`COc1ccc(Oc2ccc(OCCCCCOc3cc4c(cc3OC)C(=O)N3CCC[C@H]3C=N4)cc2I)cc1` [16c]: in test [1], the “(ΔTm ° C.) after incubation at 37° C. for 0 h” value was determined as 3.6 °C. The “(ΔTm ° C.) after incubation at 37° C. for 18 h” value in test [1] stood at 4.6 °C. Further, the GI50 in test [5] was 3300 nM; in [2] (48 h exposure), 2700 nM; in [6], 2300 nM; in test [7] it was 1500 nM; in test [8], 1420 nM; in [9], 2230 nM. Further, the GI50 in test [3] (48 h exposure) came to 2100 nM; in [4] (48 h exposure) it was 2220 nM; in test [10], 2600 nM; in test [11], 2120 nM.

As to `COc1ccc(Oc2ccc(OCCCCCOc3cc4c(cc3OC)C(=O)N3CCC[C@H]3C=N4)cc2I)cc1OC` [17c], the “(ΔTm ° C.) after incubation at 37° C. for 0 h” value in [1] worked out at 3.9 °C. Besides, in [1], the “(ΔTm ° C.) after incubation at 37° C. for 18 h” value stood at 4.8 °C. The GI50 in [5] was 3800 nM; in test [2] (48 h exposure), 2450 nM; in test [6], 2800 nM; in [7] it was 1120 nM; in test [8] it was 2350 nM; in test [9], 2270 nM. For the same compound, the GI50 in test [3] (48 h exposure) was determined as 2600 nM; in test [4] (48 h exposure), 2260 nM; in test [10], 2700 nM; in [11], 2560 nM.

On to `COc1ccc(Oc2cc(OCCCCCOc3cc4c(cc3OC)C(=O)N3CCC[C@H]3C=N4)ccc2I)cc1OC` [17g, 7-Methoxy-(8-5-[4-iodo-3-(3,4-dimethoxyphenoxy)phenoxy]pentyloxy)-(11aS)-1,2,3,11a-tetrahydro-5H-pyrrolo[2,1-c][1,4]benzodiazepin-5-one], for which the “(ΔTm ° C.) after incubation at 37° C. for 0 h” value in test [1] is 4.3 °C. Further, the “(ΔTm ° C.) after incubation at 37° C. for 18 h” value in [1] stood at 5.1 °C. For the same compound, the GI50 was found to be 1950 nM in test [5]; 1650 nM in [2] (48 h exposure); 180 nM in test [6]; 2250 nM in test [7]; 190 nM in test [8]; 190 nM in [9]. In addition, the GI50 in test [3] (48 h exposure) is below 100 nM; in [4] (48 h exposure) it was 2200 nM; in [10], 180 nM; in test [11], 170 nM.

For the compound `COc1cc2c(cc1OCCCCCOc1ccc(Oc3cc(OC)c(OC)c(OC)c3)c(I)c1)N=C[C@@H]1CCCN1C2=O` [18c], the “(ΔTm ° C.) after incubation at 37° C. for 0 h” value in [1] stood at 4.6 °C. For the same compound, the “(ΔTm ° C.) after incubation at 37° C. for 18 h” value in [1] was determined as 5.5 °C. Also, the GI50 in test [5] turned out to be 2780 nM; in test [2] (48 h exposure) it was 3040 nM; in [6] it was 3100 nM; in test [7], 2010 nM; in test [8], 2220 nM; in test [9], 2680 nM. Further, the GI50 in test [3] (48 h exposure) is 3600 nM; in test [4] (48 h exposure) it was 3120 nM; in [10], 3000 nM; in test [11], 2570 nM.

For `COc1ccc(Oc2cccc(OCCCCCOc3cc4c(cc3OC)C(=O)N3CCC[C@H]3C=N4)c2[N+](=O)[O-])cc1` [19g, 7-Methoxy-(8-3-[3-(4-methoxyphenoxy)-2-nitrophenoxy]pentyloxy)-(11aS)-1,2,3,11a-tetrahydro-5H-pyrrolo[2,1-c][1,4]benzodiazepin-5-one], the “(ΔTm ° C.) after incubation at 37° C. for 0 h” value in [1] was 4.9 °C. Also, the “(ΔTm ° C.) after incubation at 37° C. for 18 h” value in [1] came to 5.8 °C. For the same compound, the GI50 in test [5] worked out at 2500 nM; in [2] (48 h exposure), 2220 nM; in test [6], 2300 nM; in test [7], 2500 nM; in test [8] it was 1620 nM; in [9], 2260 nM. The GI50 in test [3] (48 h exposure) worked out at 2000 nM; in test [4] (48 h exposure), 170 nM; in test [10], 2300 nM; in test [11], 2840 nM.

With `COc1cccc2c1C(=O)c1c(O)c3c(c(O)c1C2=O)C[C@@](O)(C(=O)CO)C[C@@H]3O[C@H]1C[C@H](N)[C@H](O)[C@H](C)O1` [ADR, adriamycin, reference compound], the GI50 in test [5] (Homo sapiens, ZR-75-1) was 110 nM; in test [2] (setting [12]), below 100 nM; in test [6] (Homo sapiens, A2780) it was below 100 nM; in test [7] (Homo sapiens, HOP-62) it was 150 nM; in test [8] (Homo sapiens, SiHa), 160 nM; in test [9] (Homo sapiens, Gurav), below 100 nM. Besides, the GI50 in [3] (setting [13]) is 130 nM; in test [4] (setting [14]), below 100 nM; in [10] (Homo sapiens), 120 nM; in [11] (Homo sapiens), 160 nM.
